# Laboratory results published in ChEMBL document CHEMBL1201862, “PubChem BioAssay data set” (2004).
#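 Five compound concentrations were applied to cells in 96-well plates for 48 hours; endpoints were derived by simple linear interpolation of the resulting dose-response curve. GI50 marks 50% less growth.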 Calls of active or inactive are those of the source. No stated cut-off is given here; in the data, active = GI50 up to about 1.1 µM and inactive = higher.
# Tests used:
# Experiment in all cases: NCI tumour cell line growth inhibition, 48 h
# SW-620 = test system: SW-620
# OVCAR-5 = test system: OVCAR-5
# HOP-92 = test system: HOP-92
# SF-268 = test system: SF-268
# COLO 205 = test system: COLO 205
# NCI/ADR-RES = test system: NCI/ADR-RES
# ACHN = test system: ACHN
# OVCAR-8 = test system: OVCAR-8
# 786-0 = test system: 786-0
# UACC-257 = test system: UACC-257
# SNB-19 = test system: SNB-19
# UO-31 = test system: UO-31
# MDA-N = test system: MDA-N
# HCT-116 = test system: HCT-116
# MDA-MB-231 = test system: MDA-MB-231
# OVCAR-3 = test system: OVCAR-3
# HT-29 = test system: HT-29
# SK-MEL-2 = test system: SK-MEL-2
SMILES,GI50 (SW-620),GI50 (OVCAR-5),GI50 (HOP-92),GI50 (SF-268),GI50 (COLO 205),GI50 (NCI/ADR-RES),GI50 (ACHN),GI50 (OVCAR-8),GI50 (786-0),GI50 (UACC-257),GI50 (SNB-19),GI50 (UO-31),GI50 (MDA-N),GI50 (HCT-116),GI50 (MDA-MB-231),GI50 (OVCAR-3),GI50 (HT-29),GI50 (SK-MEL-2)
Cn1c(=O)oc2cc(C(O)CN3CCN(Cc4ccccn4)CC3)c(Cl)cc21 (stereo unspecified),> 100 µM (inactive),> 100 µM (inactive),> 100 µM (inactive),> 100 µM (inactive),> 100 µM (inactive),0.461 µM (active),> 100 µM (inactive),> 100 µM (inactive),> 100 µM (inactive),> 100 µM (inactive),> 100 µM (inactive),> 100 µM (inactive),> 100 µM (inactive),> 100 µM (inactive),> 100 µM (inactive),> 100 µM (inactive),> 100 µM (inactive),
C/C(=C\CO)CC/C=C(\C)CNc1c(F)c(F)c(F)c(F)c1F,33.2 µM (inactive),36.5 µM (inactive),,23.1 µM (inactive),27.5 µM (inactive),30.8 µM (inactive),43.2 µM (inactive),19.8 µM (inactive),44.1 µM (inactive),21.3 µM (inactive),27.7 µM (inactive),35.6 µM (inactive),,50.8 µM (inactive),19 µM (inactive),20.2 µM (inactive),24 µM (inactive),20.7 µM (inactive)
O=C(O)c1c(-c2ccccc2)c(=O)[nH]c2ccccc12,> 100 µM (inactive),> 100 µM (inactive),,> 100 µM (inactive),> 100 µM (inactive),> 100 µM (inactive),> 100 µM (inactive),> 100 µM (inactive),> 100 µM (inactive),> 100 µM (inactive),> 100 µM (inactive),> 100 µM (inactive),> 100 µM (inactive),> 100 µM (inactive),> 100 µM (inactive),> 100 µM (inactive),> 100 µM (inactive),> 100 µM (inactive)
O=C(O)[C@H]1[C@@H](C2CCCCC2)O[C@@H](C2CCCCC2)O[C@H]1C(F)(F)F,19.8 µM (inactive),20.2 µM (inactive),18.8 µM (inactive),20.2 µM (inactive),20.4 µM (inactive),40.6 µM (inactive),18.7 µM (inactive),22 µM (inactive),17.8 µM (inactive),32.7 µM (inactive),27.5 µM (inactive),26.2 µM (inactive),16.9 µM (inactive),28.8 µM (inactive),18.2 µM (inactive),20.4 µM (inactive),22.6 µM (inactive),
COc1cc(C(=O)Oc2c(C(C)=O)sc3c2c(=O)n(-c2ccccc2)c(=S)n3-c2ccccc2)cc(OC)c1OC,25.2 µM (inactive),17.5 µM (inactive),19.3 µM (inactive),24.5 µM (inactive),15.7 µM (inactive),15.4 µM (inactive),16.6 µM (inactive),18.8 µM (inactive),19.6 µM (inactive),28.1 µM (inactive),24.7 µM (inactive),,22.8 µM (inactive),18.1 µM (inactive),25.9 µM (inactive),18.2 µM (inactive),11 µM (inactive),
Cc1ccc2c(=O)c(-c3n[nH]c(=S)s3)c[nH]c2n1,> 100 µM (inactive),> 100 µM (inactive),,> 100 µM (inactive),> 100 µM (inactive),> 100 µM (inactive),> 100 µM (inactive),> 100 µM (inactive),> 100 µM (inactive),> 100 µM (inactive),> 100 µM (inactive),> 100 µM (inactive),> 100 µM (inactive),> 100 µM (inactive),> 100 µM (inactive),> 100 µM (inactive),> 100 µM (inactive),> 100 µM (inactive)
COc1ccccc1C(=O)NO,> 100 µM (inactive),> 100 µM (inactive),,> 100 µM (inactive),> 100 µM (inactive),> 100 µM (inactive),> 100 µM (inactive),> 100 µM (inactive),> 100 µM (inactive),> 100 µM (inactive),> 100 µM (inactive),> 100 µM (inactive),> 100 µM (inactive),> 100 µM (inactive),> 100 µM (inactive),> 100 µM (inactive),> 100 µM (inactive),> 100 µM (inactive)
COc1cccc(-c2cc(O)c3cc(NC(C)=O)ccc3n2)c1,47.8 µM (inactive),59.4 µM (inactive),8.17 µM (inactive),6.3 µM (inactive),22.4 µM (inactive),62.8 µM (inactive),> 100 µM (inactive),25.6 µM (inactive),28.9 µM (inactive),> 100 µM (inactive),8.41 µM (inactive),71.6 µM (inactive),,,31.4 µM (inactive),,22 µM (inactive),
COc1cc(C(=O)O[C@H]2CCC3CCC2N3C)cc(OC)c1OC (stereo partly specified),> 100 µM (inactive),> 100 µM (inactive),34.4 µM (inactive),> 100 µM (inactive),> 100 µM (inactive),> 100 µM (inactive),> 100 µM (inactive),> 100 µM (inactive),> 100 µM (inactive),> 100 µM (inactive),> 100 µM (inactive),43.2 µM (inactive),,> 100 µM (inactive),> 100 µM (inactive),,> 100 µM (inactive),
